# Results published in ChEMBL document CHEMBL1201862, “PubChem BioAssay data set” (2004).
#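 The compound was tested at five concentrations on cells cultured in 96-well plates, with a 48-hour exposure period. The concentration for 50% growth inhibition is given as GI50.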 The source made the active and inactive calls. No stated cut-off is given here; in the data, active = GI50 up to about 1.1 µM and inactive = higher.
# Experiments:
# Assay in all cases: NCI tumour cell line growth inhibition, 48 h
# [1] = test system: MCF7
# [2] = test system: K562
# [3] = test system: HCC 2998
# [4] = test system: M14
# [5] = test system: OVCAR-3
# [6] = test system: A498
# [7] = test system: CCRF-CEM
# [8] = test system: HOP-92
# [9] = test system: SF-268
# [10] = test system: Hs-578T
# [11] = test system: SK-MEL-5
# [12] = test system: IGROV-1
# [13] = test system: T47D
# [14] = test system: MOLT-4
# [15] = test system: RXF 393
# [16] = test system: EKVX
# [17] = test system: ACHN
# [18] = test system: CAKI-1
# [19] = test system: HCT-116
# [20] = test system: NCI-H522
# [21] = test system: OVCAR-5
# [22] = test system: SK-MEL-28
# [23] = test system: OVCAR-4
# [24] = test system: PC-3
# [25] = test system: UACC-257
# [26] = test system: MDA-MB-435
# [27] = test system: Malme-3M
# [28] = test system: DU-145
# [29] = test system: NCI-H460
# [30] = test system: SNB-19
# [31] = test system: A549
# [32] = test system: SNB-75
# [33] = test system: SN12C
# [34] = test system: NCI/ADR-RES
# [35] = test system: NCI-H226
# [36] = test system: MDA-N
# [37] = test system: SK-OV-3
# [38] = test system: UACC-62
# [39] = test system: HL-60
# [40] = test system: RPMI-8226
# [41] = test system: UO-31
# [42] = test system: BT-549
# [43] = test system: NCI-H23
# [44] = test system: HOP-62
# [45] = test system: SK-MEL-2
# [46] = test system: HCT-15
# [47] = test system: U-251
# [48] = test system: KM12
# [49] = test system: MDA-MB-231
# [50] = test system: SW-620
# [51] = test system: HT-29
# [52] = test system: OVCAR-8
# [53] = test system: SF-295
# [54] = test system: LOX IMVI
# [55] = test system: COLO 205
# [56] = test system: 786-0
# [57] = test system: TK-10
# [58] = test system: SF-539
compound,measurement,setting,value
COc1c2cc([N+](=O)[O-])cc1CNC(=O)CN1CCOCCOCCN(CCOCCOCC1)CC(=O)NC2,GI50,[1],> 100 µM (inactive)
same,GI50,[2],> 100 µM (inactive)
same,GI50,[3],> 100 µM (inactive)
same,GI50,[4],> 100 µM (inactive)
same,GI50,[5],> 100 µM (inactive)
same,GI50,[6],> 100 µM (inactive)
same,GI50,[7],> 100 µM (inactive)
same,GI50,[8],> 100 µM (inactive)
same,GI50,[9],> 100 µM (inactive)
same,GI50,[10],> 100 µM (inactive)
same,GI50,[11],> 100 µM (inactive)
same,GI50,[12],> 100 µM (inactive)
same,GI50,[13],> 100 µM (inactive)
same,GI50,[14],> 100 µM (inactive)
same,GI50,[15],> 100 µM (inactive)
same,GI50,[16],> 100 µM (inactive)
same,GI50,[17],> 100 µM (inactive)
same,GI50,[18],> 100 µM (inactive)
same,GI50,[19],> 100 µM (inactive)
same,GI50,[20],> 100 µM (inactive)
same,GI50,[21],> 100 µM (inactive)
same,GI50,[22],> 100 µM (inactive)
same,GI50,[23],> 100 µM (inactive)
same,GI50,[24],> 100 µM (inactive)
same,GI50,[25],> 100 µM (inactive)
same,GI50,[26],> 100 µM (inactive)
same,GI50,[27],> 100 µM (inactive)
same,GI50,[28],> 100 µM (inactive)
same,GI50,[29],> 100 µM (inactive)
same,GI50,[30],> 100 µM (inactive)
same,GI50,[31],> 100 µM (inactive)
same,GI50,[32],> 100 µM (inactive)
same,GI50,[33],> 100 µM (inactive)
same,GI50,[34],> 100 µM (inactive)
same,GI50,[35],> 100 µM (inactive)
same,GI50,[36],> 100 µM (inactive)
same,GI50,[37],> 100 µM (inactive)
same,GI50,[38],> 100 µM (inactive)
same,GI50,[39],> 100 µM (inactive)
same,GI50,[40],56.4 µM (inactive)
same,GI50,[41],> 100 µM (inactive)
same,GI50,[42],> 100 µM (inactive)
same,GI50,[43],> 100 µM (inactive)
same,GI50,[44],> 100 µM (inactive)
same,GI50,[45],> 100 µM (inactive)
same,GI50,[46],> 100 µM
same,GI50,[47],> 100 µM (inactive)
same,GI50,[48],> 100 µM (inactive)
same,GI50,[49],> 100 µM (inactive)
same,GI50,[50],> 100 µM (inactive)
same,GI50,[51],> 100 µM (inactive)
same,GI50,[52],> 100 µM (inactive)
same,GI50,[53],> 100 µM (inactive)
same,GI50,[54],> 100 µM (inactive)
same,GI50,[55],> 100 µM (inactive)
same,GI50,[56],> 100 µM (inactive)
same,GI50,[57],> 100 µM (inactive)
OC1OC(c2ccc[nH]2)C(F)(F)C(F)(F)C1(F)F (configuration not stated),GI50,[1],> 100 µM (inactive)
same,GI50,[58],> 100 µM (inactive)
same,GI50,[4],> 100 µM (inactive)
same,GI50,[5],> 100 µM (inactive)
same,GI50,[6],> 100 µM (inactive)
same,GI50,[7],73.6 µM (inactive)
same,GI50,[8],68.4 µM (inactive)
same,GI50,[9],> 100 µM (inactive)
same,GI50,[10],> 100 µM (inactive)
same,GI50,[11],63.4 µM (inactive)
same,GI50,[12],> 100 µM (inactive)
same,GI50,[13],> 100 µM (inactive)
same,GI50,[14],> 100 µM (inactive)
same,GI50,[15],> 100 µM (inactive)
same,GI50,[16],> 100 µM (inactive)
same,GI50,[17],> 100 µM (inactive)
same,GI50,[18],87.3 µM (inactive)
same,GI50,[19],> 100 µM (inactive)
same,GI50,[20],> 100 µM (inactive)
same,GI50,[21],> 100 µM (inactive)
same,GI50,[22],> 100 µM (inactive)
same,GI50,[23],73.1 µM (inactive)
same,GI50,[24],> 100 µM (inactive)
same,GI50,[25],> 100 µM (inactive)
same,GI50,[26],> 100 µM (inactive)
same,GI50,[27],> 100 µM (inactive)
same,GI50,[28],> 100 µM (inactive)
same,GI50,[29],> 100 µM (inactive)
same,GI50,[30],> 100 µM (inactive)
same,GI50,[31],> 100 µM (inactive)
same,GI50,[32],60.8 µM (inactive)
same,GI50,[33],> 100 µM (inactive)
same,GI50,[34],> 100 µM (inactive)
same,GI50,[35],> 100 µM (inactive)
same,GI50,[36],> 100 µM (inactive)
same,GI50,[37],> 100 µM (inactive)
same,GI50,[38],> 100 µM (inactive)
same,GI50,[39],43.5 µM (inactive)
same,GI50,[40],> 100 µM (inactive)
same,GI50,[41],97.7 µM (inactive)
same,GI50,[42],> 100 µM (inactive)
same,GI50,[44],> 100 µM (inactive)
same,GI50,[45],> 100 µM (inactive)
same,GI50,[46],> 100 µM
same,GI50,[47],> 100 µM (inactive)
same,GI50,[48],> 100 µM (inactive)
same,GI50,[49],> 100 µM (inactive)
same,GI50,[50],> 100 µM (inactive)
same,GI50,[51],> 100 µM (inactive)
same,GI50,[52],> 100 µM (inactive)
same,GI50,[53],> 100 µM (inactive)
same,GI50,[54],> 100 µM (inactive)
same,GI50,[55],26.7 µM (inactive)
same,GI50,[56],> 100 µM (inactive)
same,GI50,[57],> 100 µM (inactive)
